From the NIST ThermoML archive (doi:10.1016/j.fluid.2007.07.016)
Numbers after ± are expanded uncertainties.

Assay: xn = mol fraction of the nth substance listed
Details: 101 kPa, Liquid; for viscosity: Capillary tube (Ostwald / Ubbelohde) method; for speed of sound: Linear variable-path acoustic interferometer

Cc1ccccc1C [1,2-dimethylbenzene] + C1CCOC1
Details | speed of sound, 288.15 K [m/s] | speed of sound, 298.15 K [m/s] | speed of sound, 308.15 K [m/s] | speed of sound, 318.15 K [m/s] | viscosity, 288.15 K [mPa·s] | viscosity, 298.15 K [mPa·s] | viscosity, 308.15 K [mPa·s] | viscosity, 318.15 K [mPa·s]
x2 = 0 | 1388.5 ± 1.6 | 1350.3 ± 1.6 | 1321.4 ± 1.6 | 1285.8 ± 1.6 | 0.8623 ± 0.006 | 0.7576 ± 0.0054 | 0.669 ± 0.0048 | 0.5972 ± 0.0043
x2 = 0.0764 | 1384.3 ± 1.6 | 1345.1 ± 1.6 | 1314.5 ± 1.6 | 1277.9 ± 1.5 | 0.8385 ± 0.0058 | 0.738 ± 0.0052 | 0.6535 ± 0.0047 | 0.585 ± 0.0043
x2 = 0.1504 | 1380 ± 1.6 | 1340 ± 1.6 | 1307.8 ± 1.6 | 1270.2 ± 1.5 | 0.8155 ± 0.0057 | 0.7192 ± 0.0051 | 0.6384 ± 0.0046 | 0.573 ± 0.0042
x2 = 0.2243 | 1375.7 ± 1.6 | 1335 ± 1.6 | 1301.1 ± 1.6 | 1262.7 ± 1.5 | 0.7919 ± 0.0055 | 0.6998 ± 0.005 | 0.6226 ± 0.0045 | 0.5602 ± 0.0041
x2 = 0.2942 | 1371.4 ± 1.6 | 1330 ± 1.6 | 1294.8 ± 1.6 | 1255.6 ± 1.5 | 0.769 ± 0.0054 | 0.6807 ± 0.0049 | 0.6067 ± 0.0044 | 0.5471 ± 0.004
x2 = 0.366 | 1366.9 ± 1.6 | 1324.9 ± 1.6 | 1288.3 ± 1.6 | 1248.4 ± 1.5 | 0.7451 ± 0.0052 | 0.6606 ± 0.0047 | 0.59 ± 0.0043 | 0.5331 ± 0.0039
x2 = 0.4226 | 1363.4 ± 1.6 | 1320.9 ± 1.6 | 1283.2 ± 1.6 | 1242.8 ± 1.5 | 0.726 ± 0.0051 | 0.6445 ± 0.0046 | 0.5764 ± 0.0042 | 0.5216 ± 0.0039
x2 = 0.4801 | 1359.7 ± 1.6 | 1316.7 ± 1.6 | 1278 ± 1.6 | 1237.1 ± 1.5 | 0.7063 ± 0.005 | 0.6277 ± 0.0045 | 0.5621 ± 0.0041 | 0.5094 ± 0.0038
x2 = 0.531 | 1356.3 ± 1.6 | 1313 ± 1.6 | 1273.4 ± 1.6 | 1232.1 ± 1.5 | 0.6888 ± 0.0049 | 0.6127 ± 0.0045 | 0.5493 ± 0.004 | 0.4981 ± 0.0037
x2 = 0.585 | 1352.6 ± 1.6 | 1309 ± 1.6 | 1268.5 ± 1.6 | 1226.8 ± 1.5 | 0.6694 ± 0.0048 | 0.5959 ± 0.0043 | 0.5348 ± 0.0039 | 0.4856 ± 0.0037
x2 = 0.6578 | 1347.6 ± 1.6 | 1303.6 ± 1.6 | 1262 ± 1.6 | 1219.7 ± 1.5 | 0.6432 ± 0.0046 | 0.5731 ± 0.0042 | 0.515 ± 0.0038 | 0.4684 ± 0.0036
x2 = 0.7322 | 1342.5 ± 1.6 | 1298 ± 1.6 | 1255.4 ± 1.6 | 1212.5 ± 1.5 | 0.6159 ± 0.0045 | 0.5493 ± 0.0041 | 0.4941 ± 0.0037 | 0.4498 ± 0.0035
x2 = 0.8049 | 1337.4 ± 1.6 | 1292.5 ± 1.6 | 1248.9 ± 1.6 | 1205.6 ± 1.5 | 0.5887 ± 0.0043 | 0.5253 ± 0.0039 | 0.4729 ± 0.0036 | 0.431 ± 0.0034
x2 = 0.8708 | 1332.6 ± 1.6 | 1287.5 ± 1.6 | 1243 ± 1.6 | 1199.3 ± 1.5 | 0.5635 ± 0.0042 | 0.503 ± 0.0038 | 0.453 ± 0.0035 | 0.413 ± 0.0033
x2 = 0.9392 | 1327.7 ± 1.6 | 1282.3 ± 1.6 | 1236.9 ± 1.6 | 1192.9 ± 1.5 | 0.537 ± 0.004 | 0.4794 ± 0.0037 | 0.4319 ± 0.0034 | 0.394 ± 0.0032
